In paper PMC11345766, “Computational Design of Pore-Forming Peptides with Potent Antimicrobial and Anticancer Activities” (Journal of Medicinal Chemistry, 2024):
Several values for one entry are separate records, joined by “and”; a condition that tells them apart may be missing. Equal entries are not always repeated. Ends that are not written are not given here.

Assays:
[1] = tested on: cytoplasmic membranes of ESKAPEE pathogens; test: Cytoplasmic membrane depolarization assay, DiSC3-(5); type: cell-based; details: both Gram-negative and Gram-positive bacteria; peptides at their MICs
Procedure: First, we investigated the ability of the peptides to depolarize the cytoplasmic membranes of ESKAPEE pathogens. […] Bacteria were incubated with 3,3′-dipropylthiadicarbocyanine iodide [DiSC3-(5)] dye, and the dye fluorescence was measured after peptide treatment. DiSC3-(5) is sensitive to transmembrane potential changes. It accumulates in the cytoplasmic membrane with quenched fluorescence, and when the membrane potential becomes unbalanced, the dye molecules translocate to the outside environment, resulting in increased fluorescence.[56] The three potent AMPs (LP1, LP18, and LP28) and the H-variant (LP40) depolarized the cytoplasmic membrane of both Gram-negative and Gram-positive bacteria at their MICs.
The cytoplasmic membrane depolarization activity of the peptides was determined by measuring the fluorescence of membrane-potential-sensitive dye DiSC3-(5). A. baumannii ATCC 19606, E. coli ATCC 11775, K. pneumoniae ATCC 13883, P. aeruginosa PAO1, S. aureus ATCC 12600, and E. faecium ATCC 700221 were grown to mid log phase (OD600 = 0.5) at 37 °C and then centrifuged (10,000 rpm at 4 °C for 10 min). Cells were washed twice with a buffer containing 20 mM glucose and 5 mM HEPES (pH 7.2) and diluted 1:10 (OD600 = 0.05) in a buffer with 0.1 M KCl, […], and 5 mM HEPES (pH 7.2). Fluorescence was recorded at the excitation and emission wavelengths of 622 and 670 nm, respectively. Bacterial solution (100 μL) was incubated for 15 min with 20 nM of DiSC3-(5) until fluorescence reached a plateau. Changes in transmembrane potential were monitored by observing the difference in fluorescence emission intensity after adding peptides (100 μL at their MICs) for 45 min. Assay was performed in triplicate.

[2] = Calcein dye leakage assay from LUVs; type: biochemical; details: P:L 1:100; pH 7.4
Method in brief: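 POPC:POPG (1:1) LUVs, extruded at 100 nm, loaded with 35 mM self-quenching calcein; free dye removed. Peptide 0.1 mM and LUVs 0.02 mM in PBS with 100 mM NaCl, P:L 1:100 to 1:10. Fluorescence at 495/520 nm, normalized to 100% leakage by 10% Triton X-100.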

S. carnosus (CCM 4838T) = test: microbe, parasite or virus in culture; type: cell-based, Staphylococcus carnosus; details: CCM 4838, 24 h; read-out: Antimicrobial activity (MIC) S. carnosus (CCM 4838T)
Method in brief: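 Bacteria were grown on MHA for 24 h, subcultured in MHB for 6 h at 37 °C and diluted to 10^6 CFU/mL. Compounds were serially diluted from 50 to 0.1 μM, inoculated and incubated for 24 h at 37 °C. MIC was the lowest concentration with no visible turbidity.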

[3] = tested on: A. baumannii (ATCC 19606); test: Neutropenic murine deep thigh infection model; type: in vivo, mouse; details: single intraperitoneal dose at 10 times the MIC; four days after treatment
Description: Mice were euthanized 4 days postinfection (day 8).
Each experimental group comprised three mice.

| Substance | Depolarization of the cytoplasmic membrane [1] | Calcein leakage (%) from LUVs at P:L 1:100 (mol/mol) [2] | MIC (S. carnosus (CCM 4838T)) [µM] | Reduction of bacterial load [3] |
| --- | --- | --- | --- | --- |
| H-HHHHLKKILKKLFQFINQLDNQLQDIHHHH-OH [LP40] | depolarized | 102.5 ± 1.2% | > 50 | did not significantly reduce the bacterial load |
| KKKKLKKILKKLFQFINQLDNQLQDIKKKK-NH2 [LP18] | depolarized | 93.7 ± 3.1% | 0.2 | did not significantly reduce the bacterial load |
| KKKKLKKILKKLFQFINQLDNQLQDIKQNK-NH2 [LP1] | depolarized | 87% and 87.1 ± 2.7% | 0.8 | two to three orders of magnitude |
